Experimental data: patent EP2435433B1, “(DIHYDRO)IMIDAZOISO[5,1-A]QUINOLINES AS FSH RECEPTOR AGONISTS FOR THE TREATMENT OF FERTILITY DISORDERS” (Merck Sharp & Dohme B.V., priority 2009, dated 2010)

Biological target: T1, human FSH receptor (Homo sapiens, UniProt P23945)
T1 construct: expressed in transfected cells; host or cells: Chinese Hamster Ovary (CHO) cells, stably transfected, cotransfected with CRE/promotor-firefly luciferase reporter
T1 sequence (P23945 18-695): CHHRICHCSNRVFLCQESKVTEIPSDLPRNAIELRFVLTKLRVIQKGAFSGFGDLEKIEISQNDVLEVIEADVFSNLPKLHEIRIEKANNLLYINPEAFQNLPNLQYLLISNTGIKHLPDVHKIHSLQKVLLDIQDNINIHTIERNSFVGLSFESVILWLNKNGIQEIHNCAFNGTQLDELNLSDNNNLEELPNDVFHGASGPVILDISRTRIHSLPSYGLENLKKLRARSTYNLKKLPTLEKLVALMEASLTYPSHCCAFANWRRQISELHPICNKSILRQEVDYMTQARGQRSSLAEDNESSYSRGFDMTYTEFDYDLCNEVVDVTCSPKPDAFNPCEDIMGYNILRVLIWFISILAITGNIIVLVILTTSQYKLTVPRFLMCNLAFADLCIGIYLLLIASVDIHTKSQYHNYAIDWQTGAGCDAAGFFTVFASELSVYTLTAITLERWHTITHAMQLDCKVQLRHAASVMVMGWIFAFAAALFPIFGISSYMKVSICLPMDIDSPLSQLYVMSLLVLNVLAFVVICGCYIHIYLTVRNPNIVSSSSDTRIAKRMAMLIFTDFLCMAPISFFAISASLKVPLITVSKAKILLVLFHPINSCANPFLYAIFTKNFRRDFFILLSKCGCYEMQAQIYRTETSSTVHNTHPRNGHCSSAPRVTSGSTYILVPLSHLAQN
Assay: Agonistic activity of compounds at the human FSH receptor expressed in CHO cells, CRE/luciferase reporter (hFSHRago (CHO luc))
Format: cell-based
Conditions: CHO cells stably transfected with the human FSH receptor and CRE/firefly luciferase reporter; 4 hours of incubation; half-maximal stimulation relative to the compound's own maximal effect; read-out: hFSHRago (CHO luc) EC50
Excerpt: The term EC50 means the concentration of the test compound that elicits half-maximal (50 %) stimulation compared to the compound's maximally attainable effect. The values can be determined e.g. in a cell line transfected with a FSH receptor gene and cotransfected with a cAMP responsive element/promoter directing the expression of a reporter gene. Values can be determined using a software program such as MathIQ (version 2.0, ID Business Solutions Limited).
Agonistic activity of the compounds at the human FSH receptor was determined in Chinese Hamster Ovary (CHO) cells stably transfected with the human FSH receptor and cotransfected with a cAMP responsive element (CRE)/promotor directing the expression of a firefly luciferase reporter gene. Binding of the compounds to the Gs protein-coupled FSH receptor will result in an increase of cAMP, which in turn will induce an increased transactivation of the luciferase reporter. Cells (7,500 cells/well of a 384 well plate) were incubated in Dulbecco' minimal essential F12 modified medium (Invitrogen), supplemented with 1 µg/ml bovine insulin, 5 µg/ml human apo-transferrin, 80 U/ml penicillin G and 80 µg/ml streptomycin with the test compounds (concentration between 0.0316 nM and 10.0 µM) in duplicate in a humidified atmosphere (95%) at 5-7% CO2 and 37°C. The final concentration of DMSO was 1%. After 4 hours of incubation, plates were allowed to adjust to room temperature for 1 hour. Then, Luclite (PerkinElmer) solution was added to the wells and cells were allowed to lyse for at least 1 hour at room temperature. Subsequently, luciferase activity was measured in a luminescence counter. The signal is expressed as counts per second (cps). The EC50 (concentration of the test compound that elicits half-maximal (50 %) luciferase stimulation compared to the compound's maximally attainable effect) and efficacy values (maximal effect of the test compound as percentage of the maximal effect of recombinant human FSH) of the compounds were determined using the software program MathIQ (version 2.0, ID Business Solutions Limited). EC50 data are indicated at the synthesis examples.

Row | SMILES | EC50 [nM]
1 | COc1cc2c(cc1NC(=O)C(C)O)-c1c(-c3cccs3)nc(C(=O)N(C)C(C)(C)C)n1CC2 (stereo not shown) [Example 7, 9-(2-Hydroxy-propionylamino)-8-methoxy-1-thiophen-2-yl-5,6-dihydro-imidazo[5,1-a]isoquinoline-3-carboxylic acid tert-butyl-methyl-amide] | 35
2 | COc1cc2c(cc1OC)-c1c(-c3ccc(F)cc3)nc(C(=O)N3CCCN(C(C)=O)CC3)n1CC2 [Example 50e, 1-{4-[1-(4-Fluoro-phenyl)-8,9-dimethoxy-5,6-dihydro-imidazo[5,1-a]isoquinoline-3-carbonyl]-[1,4]diazepan-1-yl}-ethanone] | 315
3 | COc1cc2c(cc1-c1cccc(-n3cccn3)c1)-c1c(-c3cccs3)nc(C(=O)N(C)C(C)(C)C)n1CC2 [Example 2g, 8-Methoxy-9-(3-pyrazol-1-yl-phenyl)-1-thiophen-2-yl-5,6-dihydro-imidazo[5,1-a]iso-quinoline-3-carboxylic acid tert-butyl-methyl-amide] | 2
4 | COc1cc2c(cc1CCC(C)(C)O)-c1c(-c3cccs3)nc(C(=O)N(C)C(C)(C)C)n1CC2 [Example 41c, 9-(3-Hydroxy-3-methyl-butyl)-8-methoxy-1-thiophen-2-yl-5,6-dihydro-imidazo[5,1-a]isoquinoline-3-carboxylic acid tert-butyl-methyl-amide] | 191
5 | COc1cc2c(cc1OC(C)C)-c1c(-c3cccs3)nc(C(=O)N3CCCC3(C)C)n1CC2 [Example 22, (2,2-Dimethyl-pyrrolidin-1-yl)-(9-isopropoxy-8-methoxy-1-thiophen-2-yl-5,6-dihydro-imidazo[5,1-a]isoquinolin-3-yl)-methanone] | 3
6 | COc1cc2c(cc1NC(=O)c1cscn1)-c1c(-c3cccs3)nc(C(=O)N(C)C(C)(C)C)n1CC2 [Example 11, 8-Methoxy-9-[(thiazole-4-carbonyl)-amino]-1-thiophen-2-yl-5,6-dihydro-imidazo[5,1-a]isoquinoline-3-carboxylic acid tert-butyl-methyl-amide] | 13
7 | COc1cc2c(cc1SC(C)C)-c1c(-c3cccs3)nc(C(=O)N(C)C(C)(C)C)n1CC2 [Example 52c, 9-Isopropylsulfanyl-8-methoxy-1-thiophen-2-yl-5,6-dihydro-imidazo[5,1-a]isoquinoline-3-carboxylic acid tert-butyl-methyl-amide] | 16
8 | COc1cc2c(cc1OCCN)-c1c(-c3cccs3)nc(C(=O)N(C)C(C)(C)C)n1CC2 [Example 31, 9-(2-Amino-ethoxy)-8-methoxy-1-thiophen-2-yl-5,6-dihydro-imidazo[5,1-a]isoquinoline-3-carboxylic acid tert-butyl-methyl-amide] | 94
9 | COc1cc2c(cc1OCCO)-c1c(-c3cccs3)nc(C(=O)N(C)C(C)(C)C)n1CC2 [Example 30c, 9-(2-Hydroxy-ethoxy)-8-methoxy-1-thiophen-2-yl-5,6-dihydro-imidazo[5,1-a]isoquinoline-3-carboxylic acid tert-butyl-methyl-amide] | 7
10 | COc1cc2c(cc1C(=O)NC(C)C)-c1c(-c3cccs3)nc(C(=O)N(C)C(C)(C)C)n1CC2 [Example 5, 8-Methoxy-1-thiophen-2-yl-5,6-dihydro-imidazo[5,1-a]isoquinoline-3,9-dicarboxylic acid 3-(tert-butyl-methyl-amide) 9-isopropylamide] | 18
11 | COc1cc2c(cc1-c1cccc(N3CCOCC3)n1)-c1c(-c3cccs3)nc(C(=O)N(C)C(C)(C)C)n1CC2 [Example 2d, 8-Methoxy-9-(6-morpholin-4-yl-pyridin-2-yl)-1-thiophen-2-yl-5,6-dihydro-imidazo[5,1-a]isoquinoline-3-carboxylic acid tert-butyl-methyl-amide] | 100
12 | CCN(C(=O)c1nc(-c2cccs2)c2n1CCc1cc(OC)c(OC(C)C)cc1-2)C(C)(C)C [Example 21f, 9-Isopropoxy-8-methoxy-1-thiophen-2-yl-5,6-dihydro-imidazo[5,1-a]isoquinoline-3-carboxylic acid tert-butyl-ethyl-amide] | 0.9
13 | COc1cc2c(cc1CC(C)C)-c1c(-c3ncco3)nc(C(=O)N(C)C(C)(C)C)n1CC2 [Example 37f, 9-Isobutyl-8-methoxy-1-oxazol-2-yl-5,6-dihydro-imidazo[5,1-a]isoquinoline-3-carboxylic acid tert-butyl-methyl-amide] | 380
14 | COc1ccccc1-c1cc2c(cc1OC)CCn1c(C(=O)N(C)C(C)(C)C)nc(-c3cccs3)c1-2 [Example 2q, 8-Methoxy-9-(2-methoxy-phenyl)-1-thiophen-2-yl-5,6-dihydro-imidazo [5,1-a]isoquinoline-3-carboxylic acid tert-butyl-methyl-amide] | 50
15 | C=Cc1cc2c(cc1OC)CCn1c(C(=O)N(C)C(C)(C)C)nc(-c3cccs3)c1-2 [Example 3b, 8-Methoxy-1-thiophen-2-yl-9-vinyl-5,6-dihydro-imidazo[5,1-a]isoquinoline-3-carboxylic acid tert-butyl-methyl-amide] | 28
16 | COc1cc2c(cc1-c1cccc(NC(C)=O)c1)-c1c(-c3cccs3)nc(C(=O)N(C)C(C)(C)C)n1CC2 [Example 2f, 9-(3-Acetylamino-phenyl)-8-methoxy-1-thiophen-2-yl-5,6-dihydro-imidazo[5,1-a]iso-quinoline-3-carboxylic acid tert-butyl-methyl-amide] | 1
17 | COc1cc2c(cc1CC(C)C)-c1c(-c3cccs3)nc(C(=O)N(C)C(C)(C)C)n1CC2 [Example 18k, 9-Isobutyl-8-methoxy-1-thiophen-2-yl-5,6-dihydro-imidazo[5,1-a]isoquinoline-3-carboxylic acid tert-butyl-methyl-amide] | 8
18 | CC(C)Cc1ccc2c(c1)-c1c(-c3cccs3)nc(C(=O)N(C)C(C)(C)C)n1CC2 [Example 20b, 9-Isobutyl-1-thiophen-2-yl-5,6-dihydro-imidazo[5,1-a]isoquinoline-3-carboxylic acid tert-butyl-methyl-amide] | 407
19 | COc1cc2c(cc1OCCNC(C)=O)-c1c(-c3cccs3)nc(C(=O)N(C)C(C)(C)C)n1CC2 [Example 32, 9-(2-Acetylamino-ethoxy)-8-methoxy-1-thiophen-2-yl-5,6-dihydro-imidazo[5,1-a]isoquinoline-3-carboxylic acid tert-butyl-methyl-amide] | 559
20 | COc1cc2c(cc1OC)-c1c(-c3cccs3)nc(C(=O)N3CCCOCC3)n1CC2 [Example 26, (8,9-Dimethoxy-1-thiophen-2-yl-5,6-dihydro-imidazo[5,1-a]isoquinolin-3-yl)-[1,4]oxazepan-4-yl-methanone] | 314
21 | COc1cc2c(cc1NC(=O)c1csnn1)-c1c(-c3cccs3)nc(C(=O)N(C)C(C)(C)C)n1CC2 [Example 12, 8-Methoxy-9-[([1,2,3]thiadiazole-4-carbonyl)-amino]-1-thiophen-2-yl-5,6-dihydro-imidazo[5,1-a]isoquinoline-3-carboxylic acid tert-butyl-methyl-amide] | 15
22 | COc1cc2c(cc1-c1cccc(N)c1)-c1c(-c3cccs3)nc(C(=O)N(C)C(C)(C)C)n1CC2 [Example 2k, 9-(3-Amino-phenyl)-8-methoxy-1-thiophen-2-yl-5,6-dihydro-imidazo[5,1-a]isoquinoline-3-carboxylic acid tert-butyl-methyl-amide] | 8
